Assay results as given in US20200370080A1, “ENANTIONSELECTIVE ENZYMATIC SULFOXIDATION OF CHIRAL ARYLSULFIDES” (Bayer Aktiengesellschaft, priority 2017, published 2020).

Experiments:
[1] = test system: E. coli cells; assay: toxicity of educt and product: growth of the production strain at different concentrations; assay type: cell-based
Protocol: A person skilled in the art knows how to determine the maximum rate at which the enzyme can process the substrate and thus how much substrate can be added to a given reaction continuously or in a given time interval. To understand the toxicity of educt and product the growth rate of the production strain is determined in presence of different educt and product concentration.

[2] = test system: styrene monooxygenase StyA/StyB from A. baylyi; assay: in vitro sulfoxidation of arylsulfide substrates by purified StyA (oxygenase) with excess StyB (reductase), HPLC analysis; assay type: biochemical, Acinetobacter baylyi sp. ADP1; details: for ee %: enantiomeric excess of sulfoxide formed, abs. configuration S; for yield %): enzymatic conversion to sulfoxide, 2 mM substrate (1 mM in case of clouding), purified StyA with excess StyB
Protocol: In order to do so, the StyA unit from Acinetobacter sp. ADP1 was cloned into a pET-vector inducible with IPTG and expressed in E. coli BL21 pLysS grown in LB medium (10 g/l tryptone, 5 g/l yeast extract, 10 g/l or 20 g/l NaCl, 100 μg/ml ampicillin, 50 μg/ml Chloramphenicol). For the expression a 5 ml overnight culture was used as inoculum for a fermenter with […] or a flask with 500 ml medium. The cells were cultured at 37° C. until the culture reached an optical density of 0.6 which was the threshold for induction of recombinant gene expression using IPTG (0.1 mM). The culture was performed for another 18 h at 20° C. […] The cells were harvested and the cellular walls were disrupted using a French press. […] The target protein was purified for the subsequent characterization.
The StyB unit from Acinetobacter baylyi sp. ADP1 was expressed in a similar fashion.
In order to test the activity the StyB unit (reductase) was employed in excess to supply the StyA unit (oxygenase) with sufficient reduced FAD. Therefore, NADH was produced by a format-dehydrogenase from format and NAD in the respective enzymatic reaction.
The enzyme conversion rate was probed every minute for 15 min for the kinetic analysis. If possible, i.e. soluble, 2 mM substrate were employed. In case of clouding 1 mM substrate was employed. The substrate was dissolved in ethanol. Reactions in the probes were stopped with a 1:1 mixture of ice-cold methanol and acetonitrile and afterwards analyzed using HPLC.
The educt and the product were analyzed on an Agilent 1100 HPLC device.

[3] = resting cell activity of whole-cell biocatalyst (E. coli JM101 pStyAB_ADP1_lac); assay type: cell-based; details: E. coli JM101, M9 minimal medium, 4.8 h after induction with 1 mM IPTG
Protocol: In detail, the styrene monooxygenase subunits StyA and StyB were expressed in E. coli JM101 cultivated in M9 minimal medium from the pStyAB_ADP1_lac vector. To find the maximum specific activity samples were taken after previously defined time points after addition of the inducer (1 mM IPTG). Cells were retrieved from the actively growing culture and used for the determination of the resting cell activity. As shown in FIG. 3 the specific activity increased steadily from the time point of induction and reached a maximum of 450±30 U/gcdw 4.8 h after induction.
In detail, the specific activity was quantified as follows: StyA and StyB were expressed in E. coli JM101 carrying the pStyAB_ADP1_lac vector. Cells were cultivated in M9 minimal medium and induced at an OD of 0.6-0.8. […]
Successful separation of the product i.e. the S-enantiomer of 2-chloro-4-(methylsulfinylmethyl)pyridine was achieved on a Dionex UltiMate 3000 HPLC system (Thermo Scientific) equipped with a non-polar HPLC column with C18 matrix (Accucore C18, 3×150 mm, 2.6 μm particle size, Thermo Scientific). […] The organic compounds were detected by absorption using diode array detector (DAD) at a wavelength of 210 nm. […]

With C[S@+]([O-])Cc1ccnc(Cl)c1 [2-Chloro-4-((methyl-S-sulfinyl)methyl)pyridine] the “toxicity of the product compared with the substrate” value ([1]; E. coli cells) was “significantly lower”.

With CSCc1ccnc(Cl)c1 [2-chloro-4-(methylsulfanylmethyl)pyridine] the “substrate concentration that entirely inhibited the growth of the cells” value ([1]; E. coli cells expressing StyA and StyB) was “above 10 mM”.

With CSc1ccccc1 [Ph—S—CH3, phenyl methyl sulfide] the ee % [2] was 99.3% and the “yield %)” value [2] was 48%.

In the case of C=CSc1ccccc1 [Ph—S—CH═CH2, phenyl vinyl sulfide], the ee % [2] is reported as 99.7% and the “yield %)” value [2] is reported as 40%.

In the case of CSc1ccc(Br)cc1 [p(Br)—Ph—S—CH3, 4-bromophenyl methyl sulfide], the ee % [2] is reported as 98.1% and the “yield %)” value [2] is reported as 58%.

With CSc1ccc(C)cc1 [p(CH3)—Ph—S—CH3, 4-methylphenyl methyl sulfide] the ee % [2] was 97.6% and the “yield %)” value [2] was 42%.

In the case of CSc1ccc(Cl)cc1 [p(Cl)—Ph—S—CH3, 4-chlorophenyl methyl sulfide], the ee % [2] is reported as 95.5% and the “yield %)” value [2] is reported as 34%.

With CSc1ccc(F)cc1 [p(F)—Ph—S—CH3, 4-fluorophenyl methyl sulfide] the ee % [2] was 99.0% and the “yield %)” value [2] was 55%.

B1: styrene monooxygenase subunits StyA and StyB: two-component styrene monooxygenase (SEQ ID NO 5 and 6) expressed in E. coli JM101 from the pStyAB_ADP1_lac vector (protein, listed as Acinetobacter baylyi)
chain 1: MRRIAIVGAGQSGLQLGLSLLDTGYDVTIVTNRTADQIRQGKVMSSQCMFHTALQTERDVGLNFWEEQCPAVEGIGFTLVSPETGKPAFSWSARLERYAQSVDQRVKMPYWIEEFERRGGKLIIQDVGIDELEQLTTEYELVLLAAGKGEVVKQFVRDDERSTFDKPQRALALTYVTGMKPMSPYSRVTFNVIPGVGEYFCFPALTVTGPCEIMVFEGIPGGPMDCWQDAKTPEQHLQMSKDILNTYLPWEAERCENIEITDAGGYLAGRFPPSVRKPILTLPSGRQVFGMADALVVNDPITGQGSNNAAKCSKIYFDAILAHDTQSFTPEWMQQTFERYWSYAEKVVAWTNSLLVPPQPQMIDVLAAASQNQAIASTIANNFDDPRNFSPWWFDAEQAQHFIESKSCQKVA
chain 2: MNINTSHELGLKPIDTENPREIRNLLGQFATGVTVITTRGRDGRKIGMTANSFSSLSLDPPLILWSLSKTAPSLPDFTEAEYFAIHMLAQEHHSLSGHFARGSEDKFASIAHRECERGLPLLEDVLATLVCKNINQYEGGDHLIFIGQIEHYQQRIGEPLVFHAGKYRIAAEHPELSA
With B1 the maximum specific activity [3] was 450±30 U/gcdw.
